What was measured:
[1] = target: T1, Beta-lactamase SHV-1 (Klebsiella pneumoniae) (UniProt P0AD64); assay: Ratio of Kcat to Km of Klebsiella pneumoniae SHV1 assessed as drug hydrolysis by spectrophotometry relative to cephaloridine; design: scale not given: the % may be the effect or the level left
T1 sequence (whole entry): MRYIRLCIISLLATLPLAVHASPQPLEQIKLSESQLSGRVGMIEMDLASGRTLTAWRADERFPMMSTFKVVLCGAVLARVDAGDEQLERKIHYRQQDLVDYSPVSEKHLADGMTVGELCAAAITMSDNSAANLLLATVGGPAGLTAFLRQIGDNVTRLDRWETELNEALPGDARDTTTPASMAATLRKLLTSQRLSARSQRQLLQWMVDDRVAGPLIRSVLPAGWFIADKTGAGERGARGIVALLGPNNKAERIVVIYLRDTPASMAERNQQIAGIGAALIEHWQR

[2] = target: T2, Beta-lactamase (Klebsiella oxytoca) (UniProt Q8RT60); assay: Ratio of Kcat to Km of Klebsiella oxytoca beta-lactamase K1 assessed as drug hydrolysis by spectrophotometry relative to cephaloridine; design: scale not given: the % may be the effect or the level left
T2 sequence (whole entry): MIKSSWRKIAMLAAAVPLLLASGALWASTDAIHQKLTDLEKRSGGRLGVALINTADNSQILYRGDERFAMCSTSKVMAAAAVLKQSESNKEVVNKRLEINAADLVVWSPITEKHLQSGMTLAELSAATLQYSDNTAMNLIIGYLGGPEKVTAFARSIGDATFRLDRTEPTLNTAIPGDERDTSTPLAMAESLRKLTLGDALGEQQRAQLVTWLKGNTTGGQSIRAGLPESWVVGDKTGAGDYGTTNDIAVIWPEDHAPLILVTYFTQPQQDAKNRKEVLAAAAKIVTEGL

[3] = target: T3, Carbapenem-hydrolyzing beta-lactamase SME-3 (Serratia marcescens) (UniProt Q6PRG8); assay: Activity of Serratia marcescens SME3 assessed as drug hydrolysis by spectrophotometry relative to cephaloridine; design: scale not given: the % may be the effect or the level left
T3 sequence (whole entry): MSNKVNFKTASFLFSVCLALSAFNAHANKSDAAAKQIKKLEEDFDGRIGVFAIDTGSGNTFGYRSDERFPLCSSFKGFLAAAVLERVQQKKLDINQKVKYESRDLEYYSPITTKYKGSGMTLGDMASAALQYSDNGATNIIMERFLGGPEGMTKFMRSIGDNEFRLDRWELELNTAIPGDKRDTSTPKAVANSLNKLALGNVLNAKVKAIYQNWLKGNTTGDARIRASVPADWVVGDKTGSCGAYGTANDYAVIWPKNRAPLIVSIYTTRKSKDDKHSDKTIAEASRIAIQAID

[4] = target: T4, Beta-lactamase (Providencia stuartii) (UniProt O69773); assay: Activity of Providencia stuartii AmpC assessed as drug hydrolysis by spectrophotometry relative to cephaloridine; design: scale not given: the % may be the effect or the level left
T4 sequence (whole entry): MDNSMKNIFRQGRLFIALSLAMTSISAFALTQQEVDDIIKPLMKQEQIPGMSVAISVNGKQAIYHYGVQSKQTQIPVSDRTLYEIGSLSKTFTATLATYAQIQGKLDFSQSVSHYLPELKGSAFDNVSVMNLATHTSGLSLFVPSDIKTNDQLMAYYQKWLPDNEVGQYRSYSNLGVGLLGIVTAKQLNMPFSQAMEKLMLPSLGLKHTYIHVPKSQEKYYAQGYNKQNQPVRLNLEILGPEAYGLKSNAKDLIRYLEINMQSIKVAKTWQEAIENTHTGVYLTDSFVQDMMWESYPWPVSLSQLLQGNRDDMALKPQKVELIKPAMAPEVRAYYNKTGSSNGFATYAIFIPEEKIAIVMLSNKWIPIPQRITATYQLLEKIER

[5] = target: Beta-lactamase (Serratia marcescens) (UniProt P18539); assay: Ratio of Kcat to Km of Serratia marcescens AmpC assessed as drug hydrolysis by spectrophotometry relative to cephaloridine; design: scale not given: the % may be the effect or the level left
[6] = target: Beta-lactamase TEM (Escherichia coli) (UniProt P62593); assay: Ratio of Kcat to Km of Escherichia coli TEM1 assessed as drug hydrolysis by spectrophotometry relative to cephaloridine; design: scale not given: the % may be the effect or the level left
[7] = target: T2, Beta-lactamase (Klebsiella oxytoca); assay: Activity of Klebsiella oxytoca beta-lactamase K1 assessed as drug hydrolysis by spectrophotometry relative to cephaloridine; design: scale not given: the % may be the effect or the level left
[8] = test system: Klebsiella pneumoniae; assay: Ratio of Kcat to Km of Klebsiella pneumoniae TEM26 assessed as drug hydrolysis by spectrophotometry relative to cephaloridine; design: scale not given: the % may be the effect or the level left
[9] = target: Beta-lactamase CTX-M (Escherichia coli) (UniProt Q9EXV5); assay: Activity of Escherichia coli CTX-M-15 assessed as drug hydrolysis by spectrophotometry relative to cephaloridine; design: scale not given: the % may be the effect or the level left
[10] = target: Beta-lactamase TEM (Escherichia coli) (UniProt P62593); assay: Activity of Escherichia coli TEM1 assessed as drug hydrolysis by spectrophotometry relative to cephaloridine; design: scale not given: the % may be the effect or the level left
[11] = target: Beta-lactamase (Pseudomonas aeruginosa (strain ATCC 15692 / PAO1 / 1C / PRS 101 / LMG12228)) (UniProt P24735); assay: Activity of Pseudomonas aeruginosa MK-1184 AmpC assessed as drug hydrolysis by spectrophotometry relative to cephaloridine; design: scale not given: the % may be the effect or the level left
[12] = target: Beta-lactamase VIM-2 (Pseudomonas aeruginosa) (UniProt Q9K2N0); assay: Activity of Pseudomonas aeruginosa VIM2 assessed as drug hydrolysis by spectrophotometry relative to cephaloridine; design: scale not given: the % may be the effect or the level left
[13] = target: T4, Beta-lactamase (Providencia stuartii); assay: Ratio of Kcat to Km of Providencia stuartii AmpC assessed as drug hydrolysis by spectrophotometry relative to cephaloridine; design: scale not given: the % may be the effect or the level left
[14] = target: Beta-lactamase (Pseudomonas aeruginosa (strain ATCC 15692 / PAO1 / 1C / PRS 101 / LMG12228)) (UniProt P24735); assay: Ratio of Kcat to Km of Pseudomonas aeruginosa 4352 AmpC assessed as drug hydrolysis by spectrophotometry relative to cephaloridine; design: scale not given: the % may be the effect or the level left
[15] = test system: Klebsiella pneumoniae; assay: Ratio of Kcat to Km of Klebsiella pneumoniae TEM26 assessed as drug hydrolysis by spectrophotometry
[16] = target: Beta-lactamase (Pseudomonas aeruginosa (strain ATCC 15692 / PAO1 / 1C / PRS 101 / LMG12228)) (UniProt P24735); assay: Ratio of Kcat to Km of Pseudomonas aeruginosa 18SH AmpC assessed as drug hydrolysis by spectrophotometry relative to cephaloridine; design: scale not given: the % may be the effect or the level left
[17] = test system: Klebsiella pneumoniae; assay: Activity of Klebsiella pneumoniae TEM26 assessed as drug hydrolysis by spectrophotometry relative to cephaloridine; design: scale not given: the % may be the effect or the level left
[18] = target: Beta-lactamase (Staphylococcus aureus) (UniProt P00807); assay: Ratio of Kcat to Km of Staphylococcus aureus betalactamase PC1 assessed as drug hydrolysis by spectrophotometry relative to cephaloridine; design: scale not given: the % may be the effect or the level left
[19] = target: Beta-lactamase (Morganella morganii) (UniProt P94958); assay: Ratio of Kcat to Km of Morganella morganii AmpC assessed as drug hydrolysis by spectrophotometry relative to cephaloridine; design: scale not given: the % may be the effect or the level left
[20] = target: Beta-lactamase (Pseudomonas aeruginosa (strain ATCC 15692 / PAO1 / 1C / PRS 101 / LMG12228)) (UniProt P24735); assay: Activity of Pseudomonas aeruginosa 4352 AmpC assessed as drug hydrolysis by spectrophotometry relative to cephaloridine; design: scale not given: the % may be the effect or the level left
[21] = target: T1, Beta-lactamase SHV-1 (Klebsiella pneumoniae); assay: Activity of Klebsiella pneumoniae SHV1 assessed as drug hydrolysis by spectrophotometry relative to cephaloridine; design: scale not given: the % may be the effect or the level left
[22] = target: Beta-lactamase CTX-M (Escherichia coli) (UniProt Q9EXV5); assay: Ratio of Kcat to Km of Escherichia coli CTX-M-15 assessed as drug hydrolysis by spectrophotometry relative to cephaloridine; design: scale not given: the % may be the effect or the level left
[23] = target: Beta-lactamase (Pseudomonas aeruginosa (strain ATCC 15692 / PAO1 / 1C / PRS 101 / LMG12228)) (UniProt P24735); assay: Ratio of Kcat to Km of Pseudomonas aeruginosa MK-1184 AmpC assessed as drug hydrolysis by spectrophotometry relative to cephaloridine; design: scale not given: the % may be the effect or the level left
[24] = target: Beta-lactamase VIM-2 (Pseudomonas aeruginosa) (UniProt Q9K2N0); assay: Ratio of Kcat to Km of Pseudomonas aeruginosa VIM2 assessed as drug hydrolysis by spectrophotometry relative to cephaloridine; design: scale not given: the % may be the effect or the level left
[25] = target: Beta-lactamase (Serratia marcescens) (UniProt P18539); assay: Activity of Serratia marcescens AmpC assessed as drug hydrolysis by spectrophotometry relative to cephaloridine; design: scale not given: the % may be the effect or the level left
[26] = target: Beta-lactamase (Pseudomonas aeruginosa (strain ATCC 15692 / PAO1 / 1C / PRS 101 / LMG12228)) (UniProt P24735); assay: Activity of Pseudomonas aeruginosa 18SH AmpC assessed as drug hydrolysis by spectrophotometry relative to cephaloridine; design: scale not given: the % may be the effect or the level left
[27] = test system: Klebsiella pneumoniae; assay: Activity of Klebsiella pneumoniae TEM26 assessed as drug hydrolysis by spectrophotometry
[28] = target: Beta-lactamase (Morganella morganii) (UniProt P94958); assay: Activity of Morganella morganii AmpC assessed as drug hydrolysis by spectrophotometry relative to cephaloridine; design: scale not given: the % may be the effect or the level left
[29] = target: Beta-lactamase (Staphylococcus aureus) (UniProt P00807); assay: Activity of Staphylococcus aureus betalactamase PC1 assessed as drug hydrolysis by spectrophotometry relative to cephaloridine; design: scale not given: the % may be the effect or the level left
[30] = target: Beta-lactamase (Pseudomonas aeruginosa (strain ATCC 15692 / PAO1 / 1C / PRS 101 / LMG12228)) (UniProt P24735); assay: Activity of Pseudomonas aeruginosa AmpC assessed as drug hydrolysis by spectrophotometry relative to cephaloridine; design: scale not given: the % may be the effect or the level left
[31] = target: Metallo beta-lactamase (Pseudomonas aeruginosa) (UniProt Q6TUJ4); assay: Ratio of Kcat to Km of Pseudomonas aeruginosa IMP1 assessed as drug hydrolysis by spectrophotometry relative to cephaloridine; design: scale not given: the % may be the effect or the level left
[32] = target: T3, Carbapenem-hydrolyzing beta-lactamase SME-3 (Serratia marcescens); assay: Ratio of Kcat to Km of Serratia marcescens SME3 assessed as drug hydrolysis by spectrophotometry relative to cephaloridine; design: scale not given: the % may be the effect or the level left
[33] = target: Beta-lactamase (Pseudomonas aeruginosa (strain ATCC 15692 / PAO1 / 1C / PRS 101 / LMG12228)) (UniProt P24735); assay: Ratio of Kcat to Km of Pseudomonas aeruginosa AmpC assessed as drug hydrolysis by spectrophotometry relative to cephaloridine; design: scale not given: the % may be the effect or the level left

Beta-lactamase (Pseudomonas aeruginosa (strain ATCC 15692 / PAO1 / 1C / PRS 101 / LMG12228)), sequence (P24735 27-397 limits assumed): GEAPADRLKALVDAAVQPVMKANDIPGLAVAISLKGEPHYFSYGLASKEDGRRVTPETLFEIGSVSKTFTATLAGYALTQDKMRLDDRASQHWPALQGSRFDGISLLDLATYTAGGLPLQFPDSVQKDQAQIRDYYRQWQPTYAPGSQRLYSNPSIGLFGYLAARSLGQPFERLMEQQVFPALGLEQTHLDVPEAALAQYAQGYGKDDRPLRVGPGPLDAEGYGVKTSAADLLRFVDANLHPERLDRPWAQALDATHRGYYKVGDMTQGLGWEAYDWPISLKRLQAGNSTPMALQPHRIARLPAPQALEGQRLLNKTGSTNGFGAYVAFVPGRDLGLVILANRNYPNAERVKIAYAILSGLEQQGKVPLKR
Beta-lactamase TEM (Escherichia coli), sequence (P62593 whole entry): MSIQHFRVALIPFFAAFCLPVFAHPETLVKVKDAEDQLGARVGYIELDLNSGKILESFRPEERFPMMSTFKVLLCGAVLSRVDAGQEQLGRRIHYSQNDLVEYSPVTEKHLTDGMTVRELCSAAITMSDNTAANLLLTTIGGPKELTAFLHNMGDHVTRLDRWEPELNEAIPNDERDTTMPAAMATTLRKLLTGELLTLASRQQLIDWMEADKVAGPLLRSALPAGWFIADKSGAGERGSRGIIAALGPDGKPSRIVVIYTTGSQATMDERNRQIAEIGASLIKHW
Beta-lactamase (Staphylococcus aureus), sequence (P00807 whole entry): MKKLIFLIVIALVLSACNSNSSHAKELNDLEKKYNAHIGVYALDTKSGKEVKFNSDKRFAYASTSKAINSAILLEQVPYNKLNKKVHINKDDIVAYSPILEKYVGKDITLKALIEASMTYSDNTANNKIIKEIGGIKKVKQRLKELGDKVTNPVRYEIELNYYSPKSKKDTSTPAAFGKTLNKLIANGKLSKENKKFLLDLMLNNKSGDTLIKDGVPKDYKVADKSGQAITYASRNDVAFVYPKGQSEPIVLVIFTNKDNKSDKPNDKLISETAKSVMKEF
Beta-lactamase (Serratia marcescens), sequence (P18539 whole entry): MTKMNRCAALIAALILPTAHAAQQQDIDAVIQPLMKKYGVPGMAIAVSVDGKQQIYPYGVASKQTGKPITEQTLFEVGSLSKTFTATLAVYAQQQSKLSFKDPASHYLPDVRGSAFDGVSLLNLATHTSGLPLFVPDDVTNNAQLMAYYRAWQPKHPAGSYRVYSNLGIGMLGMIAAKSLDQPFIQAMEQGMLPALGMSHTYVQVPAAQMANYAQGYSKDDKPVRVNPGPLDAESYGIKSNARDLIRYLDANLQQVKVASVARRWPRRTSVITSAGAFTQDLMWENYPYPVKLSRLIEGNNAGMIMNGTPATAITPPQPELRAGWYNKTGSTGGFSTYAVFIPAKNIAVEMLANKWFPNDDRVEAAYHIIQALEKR
Metallo beta-lactamase (Pseudomonas aeruginosa), sequence (Q6TUJ4 as listed by the source): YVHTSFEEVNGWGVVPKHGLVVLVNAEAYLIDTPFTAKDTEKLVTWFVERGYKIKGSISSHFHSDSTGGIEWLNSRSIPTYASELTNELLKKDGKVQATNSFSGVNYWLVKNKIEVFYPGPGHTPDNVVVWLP

Row | Structure (SMILES) | Activity [1] [%] | Activity [2] [%] | Activity [3] [%] | Activity [4] [%] | Activity [5] [%] | Activity [6] [%] | Activity [7] [%] | Activity [8] [%] | Activity [9] [%] | Activity [10] [%] | Activity [11] [%] | Activity [12] [%] | Activity [13] [%] | Activity [14] [%] | kcat/Km [15] [M⁻¹ s⁻¹] | Activity [16] [%] | Activity [19] [%] | Activity [20] [%] | Activity [25] [%] | Activity [28] [%] | other results
1 | CC(C)(O/N=C(\C(=O)N[C@@H]1C(=O)N2C(C(=O)[O-])=C(C[n+]3ccccc3)CS[C@H]12)c1csc(N)n1)C(=O)O | 0.00084 | 0.0018 | 0.013 | 0.036 | < 0.0028 | 0.00067 | 0.0026 | 130 | 2.3 | 0.00023 | 3.1 | 0.19 | 1.3 | 0.42 | 730000 | 0.83 | < 2.5 | < 0.01 | < 0.0025 | < 0.14 | Activity [17]: 260%; Activity [18]: 0.92%; Activity [21]: 0.0026%; Activity [22]: 0.37%; Activity [23]: 5.3%; Activity [24]: 1.7%; Activity [26]: < 0.1%; Km [27]: 130 µM; kcat [27]: 95 s⁻¹; Activity [29]: 0.25%; Activity [30]: < 0.059%; Activity [31]: 120%; Activity [32]: 0.031%
2 | O=C(Cc1cccs1)N[C@@H]1C(=O)N2C(C(=O)O)=C(/C=C/c3ccc([N+](=O)[O-])cc3[N+](=O)[O-])CS[C@H]12 |  |  |  |  | 19 |  |  |  |  |  |  |  |  | 1800 |  |  | 1400 | 68 | 42 | 160 | 
3 | CC1(C)S[C@@H]2[C@H](NC(=O)Cc3ccccc3)C(=O)N2[C@H]1C(=O)O | 2600 | 400 | 0.73 | 0.62 | 290 | 5600 | 160 | 2700 | 25 | 122 | 91 | 61 | 43 | 1100 | 1.5e+07 | 61 | 860 | 37 | 0.95 | 26 | Activity [33]: 14000%; Activity [17]: 210%; Activity [18]: 1.5e+06%; Activity [21]: 260%; Activity [22]: 110%; Activity [23]: 670%; Activity [24]: 570%; Activity [26]: 35%; Km [27]: 5 µM; kcat [27]: 76 s⁻¹; Activity [29]: 46000%; Activity [30]: 540%; Activity [31]: 750%; Activity [32]: 130%
